Reference: patent US8680097B2, “Benzothiophene alkanol piperazine derivatives and their use as antidepressant” (CSPC Zhongqi Pharmaceutical Technology (Shijiazhuang) Co. …, priority 2008, dated 2014)
Where two headings read alike, the source gives them in different places.

Experiments:
[1] = test system: uptake of DA by brain synaptosomes; assay: [3H]DA reuptake by rat brain synaptosomes; assay type: biochemical; details: for inhibition effect on the uptake of DA: rat corpus striatum synaptosomes, control drugs and tested substances all 0.1 mmol/L (method and b297 say 10 μmol/L), inhibition rate; for inhibition activity on the reuptake of DA (in words): at the concentration of 10 μmol/L
mice = assay: Acute toxicity, LD50 single-fed; assay type: in vivo; details: statistics of Bliss
Experimental: Initial screening was performed by the method reported in “Modern Pharmacological Experiments Mothods” edited by Zhang Juntian.

[2] = Forced Swimming Test in Learned Helplessness Experiment; assay type: in vivo
From the text: 2. Results of in vivo antidepression of compound VII-10

[3] = test system: uptake of NA by brain synaptosomes; assay: [3H]NA reuptake by rat brain synaptosomes; assay type: biochemical; details: at the concentration of 10 μmol/L
[4] = test system: histidine auxotrophic mutant strains of Salmonella TA97, TA98, TA100 and TA102; assay type: cell-based
From the text: 4. Bacterial reverse mutation test for VII-10.
Bacterium: histidine auxotrophic mutant strains of Salmonella TA97, TA98, TA100 and TA102
Experimental method: the method reported in the literature: Maron D M et al: (1983) Mutay Res. 113, 173-216.
Results: The experiment included two parts: −S9 and +S9. […] The other dosages had no bacteriostatic effect for all the strains, with a well growing background. […] Ames test result was negative.

[5] = test system: uptake of 5-HT by brain synaptosomes; assay: [3H]5-HT reuptake by rat brain synaptosomes; assay type: biochemical; details: at the concentration of 10 μmol/L

SMILES | inhibition effect on the uptake of DA [1] | inhibition activity on the reuptake of DA (in words) [1] | inhibition activity on the reuptake of NA (in words) [3] | inhibition activity on the reuptake of 5-HT (in words) [5] | also measured
CC(C(O)c1csc2ccccc12)N1CCN(Cc2ccccc2)CC1 (single isomer, unassigned) [VII-4, N^1-benzyl-N^4-[1-methyl-2-hydroxy-2-(benzo[b]thiophene-3-yl)]ethylpiperazine (threo isomer)] | 14.5 ± 10.0 | – | – | – | –
CC(C(O)c1csc2ccccc12)N1CCN(Cc2ccccc2)CC1 (single isomer, unassigned) [VII-5, N^1-benzyl-N^4-[1-methyl-2-hydroxy-2-(benzo[b]thiophene-3-yl)]ethylpiperazine (erythro isomer)] | 11.4 ± 11.5 | – | – | – | –
Clc1ccc([C@]23CNC[C@H]2C3)cc1Cl [DOV 21947, reference compound] | 104.1 ± 4.2 ^ | – | – | – | –
Cl.OC(CCN1CCN(Cc2ccccc2)CC1)c1csc2ccccc12 (stereo not drawn) [VII-10, N^1-benzyl-N^4-[3-hydroxy-3-(benzo[b]thiophene-3-yl)]propylpiperazine hydrochloride] | 78.0 ± 8.0 | stronger inhibition activity | stronger inhibition activity | stronger inhibition activity | LD50 (mice): 1100 mg/kg; effect on immobility time in swimming (in words) [2]: significantly reduce the immobility time; immobility time ([2]; dosage 6.35 mg/kg): 90.7 ± 46.3 s; immobility time ([2]; dosage 12.7 mg/kg): 87.5 ± 35.7 s; immobility time ([2]; dosage 25.4 mg/kg, hydrochloride): 84 ± 48.9 s; Ames test result ([4]; TA97, TA98, TA100, TA102, −S9 and +S9): negative; dose showing bacteriostatic effect ([4]; TA97 in +S9 test system): 5000 μg per culture dish; dose showing bacteriostatic effect ([4]; TA98 in −S9 test system): 5000 μg per culture dish; number of reverse mutation colonies ([4]; all dosages tested, both −S9 and +S9 test systems): no significant increase
Cl.OC(CCN1CCN(CC=Cc2ccccc2)CC1)c1csc2ccccc12 (stereo not drawn) [VII-11, N^1-cinnamyl-N^4-[3-hydroxy-3-(benzo[b]thiophene-3-yl)]propylpiperazine hydrochloride] | 97.9 ± 1.1 | stronger inhibition activity | stronger inhibition activity | stronger inhibition activity | –
CC(c1ccccc1)N1CCN(CCC(O)c2csc3ccccc23)CC1.Cl (stereo not drawn) [VII-12, N^1-α-phenethyl-N^4-[3-hydroxy-3-(benzo[b]thiophene-3-yl)]propylpiperazine hydrochloride] | 98.0 ± 1.5 | stronger inhibition activity | stronger inhibition activity | stronger inhibition activity | –
Cl.OC(CCN1CCN(C(c2ccccc2)c2ccccc2)CC1)c1csc2ccccc12 (stereo not drawn) [VII-14, N^1-benzhydryl-N^4-[3-hydroxy-3-(benzo[b]thiophene-3-yl)]propylpiperazine hydrochloride] | 87.3 ± 4.3 | stronger inhibition activity | stronger inhibition activity | stronger inhibition activity | –
Cl.OC(CCN1CCN(CCOC(c2ccc(F)cc2)c2ccc(F)cc2)CC1)c1csc2ccccc12 (stereo not drawn) [VII-15] | 102.2 ± 1.3 ^ | stronger inhibition activity | stronger inhibition activity | stronger inhibition activity | –
COc1ccc(C(CN(C)C)C2(O)CCCCC2)cc1 (stereo not drawn) [Venlafaxine, reference compound] | 48.6 ± 4.1 ^ | – | – | – | immobility time ([2]; dosage 4.56 mg/kg): 57.1 ± 37.8 s; immobility time ([2]; dosage 9.12 mg/kg): 77.4 ± 47.2 s; immobility time ([2]; dosage 18.24 mg/kg): 80.8 ± 46.8 s
